Experimental data taken from ChEMBL document CHEMBL1141122, “Receptor flexibility in de novo ligand design and docking” (J Med Chem, 2005).

Biological target: T1, Interstitial collagenase (Homo sapiens, UniProt P03956)
T1 sequence (P03956 whole entry): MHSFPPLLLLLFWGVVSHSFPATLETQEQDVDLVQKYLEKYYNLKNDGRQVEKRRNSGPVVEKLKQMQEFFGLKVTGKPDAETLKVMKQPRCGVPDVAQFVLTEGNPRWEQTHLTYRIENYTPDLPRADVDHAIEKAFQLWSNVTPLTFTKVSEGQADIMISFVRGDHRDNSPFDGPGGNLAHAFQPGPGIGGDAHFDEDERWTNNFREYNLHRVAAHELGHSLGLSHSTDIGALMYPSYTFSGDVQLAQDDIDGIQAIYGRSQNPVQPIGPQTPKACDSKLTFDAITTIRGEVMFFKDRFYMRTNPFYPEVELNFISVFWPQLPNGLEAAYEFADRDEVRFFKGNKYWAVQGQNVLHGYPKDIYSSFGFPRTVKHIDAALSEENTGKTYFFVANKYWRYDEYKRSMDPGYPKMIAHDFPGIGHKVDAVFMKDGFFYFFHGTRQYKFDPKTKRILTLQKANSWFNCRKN
Test: Binding affinity towards (MMP-1) matrix metalloprotease-1

Compound	Ki [nM]
O=C(CNS(=O)(=O)c1ccc(Oc2ccncc2)cc1)NO	8.2
O=C(CNC(=O)c1ccc(Oc2ccc(Cl)cc2)cc1)NO	70
O=C(CNC(=O)c1ccc(C(F)(F)F)cc1)NO	3
O=C(CNC(=O)N1CCC(Oc2ccc(-n3ccnc3)cc2)CC1)NO	224
COc1ccc(C(=O)NCC(=O)NO)cc1	33
O=C(CNS(=O)(=O)c1ccc(Oc2ccc(Cl)cc2)cc1)NO	70
O=C(CCC(=O)c1ccc(Oc2ccncc2)cc1)NO	8.2
O=C(CCS(=O)(=O)N1CCC(Oc2ccc(-n3ccnc3)cc2)CC1)NO	224
COc1ccc(S(=O)(=O)CCC(=O)NO)cc1	33
O=C(CCC(=O)c1ccc(C(F)(F)F)cc1)NO	3
O=C(CCS(=O)(=O)c1ccc(C(F)(F)F)cc1)NO	3
O=C(CNS(=O)(=O)c1ccc(C(F)(F)F)cc1)NO	3
COc1ccc(C(=O)CCC(=O)NO)cc1	33
O=C(CCC(=O)c1ccc(Oc2ccc(Cl)cc2)cc1)NO	70
O=C(CCC(=O)N1CCC(Oc2ccc(-n3ccnc3)cc2)CC1)NO	224
O=C(CNS(=O)(=O)N1CCC(Oc2ccc(-n3ccnc3)cc2)CC1)NO	224
O=C(CCS(=O)(=O)c1ccc(Oc2ccc(Cl)cc2)cc1)NO	70
O=C(CCS(=O)(=O)c1ccc(Oc2ccncc2)cc1)NO	8.2
O=C(CNC(=O)c1ccc(Oc2ccncc2)cc1)NO	8.2

Biological target: T1, Interstitial collagenase
Test: Inhibitory concentration against (MMP-1) matrix metalloprotease-1

Compound	IC50 [nM]
CC#COc1ccc(C(=O)CCC(=O)NO)cc1	121
O=C(CCS(=O)(=O)c1ccc(Oc2ccccc2)cc1)NO	22
CCCCOc1ccc(C(=O)CCC(=O)NO)cc1	920
CC#COc1ccc(S(=O)(=O)CCC(=O)NO)cc1	121
CCCCOc1ccc(S(=O)(=O)NCC(=O)NO)cc1	920
Cc1cc(F)ccc1COc1ccc(C(=O)NCC(=O)NO)cc1	10
O=C(CCC(=O)c1ccc(Oc2ccccc2)cc1)NO	22
O=C1CC=C2C=CC=C(C(=O)CCC(=O)NO)N2C1	3
O=C(CNC(=O)c1ccc(Oc2ccccc2)cc1)NO	22
O=C1CC=C2C=CC=C(S(=O)(=O)NCC(=O)NO)N2C1	1.3
O=C(CNS(=O)(=O)c1ccc(Oc2ccccc2)cc1)NO	22
Cc1cc(F)ccc1COc1ccc(C(=O)CCC(=O)NO)cc1	10
Cc1cc(F)ccc1COc1ccc(S(=O)(=O)CCC(=O)NO)cc1	10
O=C1CC=C2C=CC=C(S(=O)(=O)CCC(=O)NO)N2C1	1.3
Cc1cc(F)ccc1COc1ccc(S(=O)(=O)NCC(=O)NO)cc1	10
CC#COc1ccc(C(=O)NCC(=O)NO)cc1	121
CCCCOc1ccc(C(=O)NCC(=O)NO)cc1	920
CCCCOc1ccc(S(=O)(=O)CCC(=O)NO)cc1	920
CC#COc1ccc(S(=O)(=O)NCC(=O)NO)cc1	121
O=C1CC=C2C=CC=C(C(=O)NCC(=O)NO)N2C1	1.3
